According to PubChem BioAssay AID1963852 (Molecular Pharmacology Branch, DTP, NCI, 2024):

Tested on: 282377-053-R-J1-PDC complex spheroid viability
Experiment: Anticancer human tumor 282377-053-R-J1-PDC patient-derived colon adenocarcinoma cell line growth inhibition [POLQ]
Conditions: for IC50: curve of first compound; for viability, T/C: stronger effect = lower value
How it was run: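 Patient-derived tumour cells were co-cultured with HUVEC and mesenchymal stem cells as multicellular spheroids at 37 °C. They were treated with POLQ inhibitors (novobiocin, ART-558, RP6685) alone or combined with other agents. Top concentrations were at or near clinical Cmax (otherwise 10 microM; SN-38 at 1 microM), decreasing in half-log steps.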

[1] = second compound 0.0316 µM, first compound 0.0316 µM
[2] = second compound 0.0316 µM, first compound 0.1 µM
[3] = second compound 0.0316 µM, first compound 0.316 µM
[4] = second compound 0.0316 µM, first compound 1 µM
[5] = second compound 0.0316 µM, first compound 3.16 µM
[6] = second compound 0.0316 µM, first compound 10 µM
[7] = second compound 0.1 µM, first compound 0.0316 µM
[8] = second compound 0.1 µM, first compound 0.1 µM
[9] = second compound 0.1 µM, first compound 0.316 µM
[10] = second compound 0.1 µM, first compound 1 µM
[11] = second compound 0.1 µM, first compound 3.16 µM
[12] = second compound 0.1 µM, first compound 10 µM
[13] = second compound 0.316 µM, first compound 0.0316 µM
[14] = second compound 0.316 µM, first compound 0.1 µM
[15] = second compound 0.316 µM, first compound 0.316 µM
[16] = second compound 0.316 µM, first compound 1 µM
[17] = second compound 0.316 µM, first compound 3.16 µM
[18] = second compound 0.316 µM, first compound 10 µM
[19] = second compound 1 µM, first compound 0.0316 µM
[20] = second compound 1 µM, first compound 0.1 µM
[21] = second compound 1 µM, first compound 0.316 µM
[22] = second compound 1 µM, first compound 1 µM
[23] = second compound 1 µM, first compound 3.16 µM
[24] = second compound 1 µM, first compound 10 µM
[25] = second compound 3.16 µM, first compound 0.0316 µM
[26] = second compound 3.16 µM, first compound 0.1 µM
[27] = second compound 3.16 µM, first compound 0.316 µM
[28] = second compound 3.16 µM, first compound 1 µM
[29] = second compound 3.16 µM, first compound 3.16 µM
[30] = second compound 3.16 µM, first compound 10 µM
[31] = second compound 10 µM, first compound 0.0316 µM
[32] = second compound 10 µM, first compound 0.1 µM
[33] = second compound 10 µM, first compound 0.316 µM
[34] = second compound 10 µM, first compound 1 µM
[35] = second compound 10 µM, first compound 3.16 µM
[36] = second compound 10 µM, first compound 10 µM
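Also: spheroids exposed to compounds for seven days.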
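For viability, T/C in this document: 100% = DMSO vehicle control viability.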

`COc1cccc2c1C(=O)c1c(O)c3c(c(O)c1C2=O)CC(O)(C(=O)CO)CC3OC1CC(N)C(O)C(C)O1` (centres undefined) + Cc1cccc(N(C)C(=O)C2C(O)CCN2c2nc(C)cc(C(F)(F)F)c2C#N)c1 showed an IC50 (second compound 0.0316 µM) of 476 nM, an IC50 (second compound 0.1 µM) of 561 nM and an IC50 (second compound 0.316 µM) of 458 nM. For the same compound, the IC50 (second compound 1 µM) was 375 nM, the IC50 (second compound 3.16 µM) was 487 nM and the IC50 (second compound 10 µM) was 350 nM. The viability, T/C [1] was 130%, the viability, T/C [2] was 105% and the viability, T/C [3] was 63.7%. The viability, T/C [4] was 27.6%, the viability, T/C [5] was 1.27% and the viability, T/C [6] was 3.44%. It also gave a viability, T/C [7] of 108%, a viability, T/C [8] of 98.5% and a viability, T/C [9] of 79.6%. It also gave a viability, T/C [10] of 20.7%, a viability, T/C [11] of 1.4% and a viability, T/C [12] of 2.79%. It also gave a viability, T/C [13] of 104%, a viability, T/C [14] of 100% and a viability, T/C [15] of 66.1%. The viability, T/C [16] was 16.1%, the viability, T/C [17] was 0.98% and the viability, T/C [18] was 3.12%. It also gave a viability, T/C [19] of 113%, a viability, T/C [20] of 101% and a viability, T/C [21] of 47%. For the same compound, the viability, T/C [22] was 29.9%, the viability, T/C [23] was 2.19% and the viability, T/C [24] was 2.83%. For the same compound, the viability, T/C [25] was 115%, the viability, T/C [26] was 91.7% and the viability, T/C [27] was 73.3%. It also gave a viability, T/C [28] of 15.2%, a viability, T/C [29] of 1% and a viability, T/C [30] of 2.98%. It also gave a viability, T/C [31] of 95%, a viability, T/C [32] of 89.8% and a viability, T/C [33] of 54%. It also gave a viability, T/C [34] of 9.01%, a viability, T/C [35] of 0.71% and a viability, T/C [36] of 2.73%.

`COc1ccc([C@@H](O)c2cc(-c3ncnc4cc(N5CCOCC5)ccc34)c(F)cc2Cl)nn1` + Cc1cccc(N(C)C(=O)C2C(O)CCN2c2nc(C)cc(C(F)(F)F)c2C#N)c1 gave an IC50 (second compound 0.0316 µM) of over 10000 nM, an IC50 (second compound 0.1 µM) of over 10000 nM and an IC50 (second compound 0.316 µM) of over 10000 nM. It also gave an IC50 (second compound 1 µM) of over 10000 nM, an IC50 (second compound 3.16 µM) of over 10000 nM and an IC50 (second compound 10 µM) of over 10000 nM. The viability, T/C [1] was 104%, the viability, T/C [2] was 115% and the viability, T/C [3] was 108%. The viability, T/C [4] was 103%, the viability, T/C [5] was 78.3% and the viability, T/C [6] was 62.4%. It also gave a viability, T/C [7] of 106%, a viability, T/C [8] of 106% and a viability, T/C [9] of 89.1%. For the same compound, the viability, T/C [10] was 110%, the viability, T/C [11] was 72.2% and the viability, T/C [12] was 75.1%. For the same compound, the viability, T/C [13] was 110%, the viability, T/C [14] was 90% and the viability, T/C [15] was 97.6%. It also gave a viability, T/C [16] of 93.1%, a viability, T/C [17] of 102% and a viability, T/C [18] of 62.2%. For the same compound, the viability, T/C [19] was 111%, the viability, T/C [20] was 80.1% and the viability, T/C [21] was 97.7%. It also gave a viability, T/C [22] of 83.2%, a viability, T/C [23] of 103% and a viability, T/C [24] of 53.1%. The viability, T/C [25] was 122%, the viability, T/C [26] was 98.9% and the viability, T/C [27] was 108%. It also gave a viability, T/C [28] of 87.8%, a viability, T/C [29] of 101% and a viability, T/C [30] of 68.5%. It also gave a viability, T/C [31] of 87.9%, a viability, T/C [32] of 87.6% and a viability, T/C [33] of 109%. It also gave a viability, T/C [34] of 76.6%, a viability, T/C [35] of 64.3% and a viability, T/C [36] of 54.3%.
